Laboratory results from patent US10028992B2, “Methods of treating muscular dystrophy” (BOARD OF REGENTS OF THE NEVADA SYSTEM OF HIGHER EDUCATION …, priority 2012, dated 2018).

System: α7 integrin promoter
Assay: muscle cell-based assay: α7βgal+/− myoblasts/myotubes, LacZ reporter, β-galactosidase cleavage of FDG
Set-up: species or system mouse
Conditions: for AC50 / EC50: Mus musculus; for AC50 / Fit Log AC50: log of AC50, given with negative sign, unit of AC50 not given; for AC50: read-out: Fit Log AC50 (converted); for Fit Curve Class: key not given; for Fit Infinite Activity [%]: fitted activity at infinite concentration; for EC50: given as log AC50 (negative values), read-out: Fit LogAC50 (converted)
Protocol: An α7 integrin null mouse was produced in which exon 1 of the gene encoding the α7 integrin was replaced by the LacZ reporter. In these mice, all the transcriptional regulatory elements of the α7 integrin promoter were retained, allowing β-galactosidase to report expression of 7 integrin. A primary myoblast cell line (designated α7βgal^+/−) isolated from 10 day old α7^+/− pups were analyzed for the ability of β-galactosidase to report α7 integrin expression. α7βgal^+/− myoblasts were differentiated and subjected to X-gal staining and western analysis (FIGS. 1A and 1B).
The activity of the α7 integrin promoter was measured by β-galactosidase cleavage of the non-fluorescent compound fluorescein di-β-D-galactopyranoside (FDG) to fluorescein. This assay was used to screen compound libraries to identify molecules that up-regulate α7 integrin expression in muscle.
Also evaluated was the effect of various isoforms of laminin and the ligand for α7β1 integrin on integrin expression. Positive hits were subjected to dose-response analysis, western analysis and a myostatin counterscreen (a negative regulator of muscle growth).

[1] = Table 12, fitted activity at zero concentration
[2] = Table 12 Compound data, concentration-response curve fit
[3] = curve fit, activity at zero concentration

SMILES | AC50 (Table 12) | Fit HillSlope (Table 12, curve fit) | Fit Zero Activity [%] [1] | Fit Curve Class (Table 12) | Score [2] | Fit Infinite Activity [%] (Table 12) | Fit Log AC50 (Table 12) | EC50 | Score (Table 12 compound data) | Fit Curve Class (curve class number) | Fit HillSlope (curve fit) | Fit Zero Activity [%] [3]
COc1ccc(N(CC(=O)NCCC(C)C)C(=O)c2snc(C(=O)NC3CCCCC3)c2N)c(OC)c1 [Compound 98] | 10 µM | 4.5045 | −0.0479% | 2.1 | 43 | – | – | – | – | – | – | –
CC1(C)CC(O)=C/C(=N\c2ccc(C(=O)O)c(O)c2)C1 [Compound 99] | 10 µM | 2.1211 | 0% | 2.1 | 43 | – | – | – | – | – | – | –
COC(=O)c1ccccc1NC(=O)c1cc[n+]([O-])cc1 [Compound 100] | 3.98 µM | 1.01 | −31.5116% | 2.1 | 43 | – | – | – | – | – | – | –
CN(C)C1(C/N=C/c2cc(Cl)cc([N+](=O)[O-])c2O)CCCCC1 [Compound 101] | – | 1.6604 | −15.8708% | 2.1 | 43 | 115.659% | −5.05 | – | – | – | – | –
CS(=O)(=O)Cc1cccc(C(=O)NN(c2ccccc2)c2ccccc2)c1 [Compound 102] | 12.6 µM | 4.5045 | 10.4042% | 2.1 | 43 | – | – | – | – | – | – | –
COc1ccccc1CNS(=O)(=O)c1ccc(Cl)s1 [Compound 103] | 6.31 µM | 1.8265 | −23.0045% | 2.1 | 43 | – | – | – | – | – | – | –
O=C(NCCc1ccccc1)C1CCC(=O)N1C1CCCC1 (centres unmarked) [Compound 104] | 10 µM | 3.6772 | −9.1182% | 2.1 | 43 | – | – | – | – | – | – | –
NS(=O)(=O)c1ccc(NC(=O)c2cc(-c3ccccc3O)[nH]n2)cc1 [Compound 105] | 10 µM | 3.5117 | 16.8467% | 2.1 | 43 | – | – | – | – | – | – | –
Fc1ccc(-c2ccnn2-c2ccccc2)cc1 [Compound 107] | 4.47 µM | 1.4781 | −19.2206% | 2.1 | 43 | – | – | – | – | – | – | –
O=C(Nc1cc(Br)ccc1O)C1CC(c2ccccc2Cl)=NO1 (centres unmarked) [Compound 108] | 12.6 µM | 4.5045 | 2.0834% | 2.1 | 43 | – | – | – | – | – | – | –
COc1ccc2oc(C[S+]([O-])c3ccccc3)c(C(=O)O)c2c1 (centres unmarked) [Compound 109] | 12.6 µM | 4.9549 | 7.5839% | 2.1 | 43 | – | – | – | – | – | – | –
CCCCS(=O)(=O)N1CCCC(C(=O)NCCc2ccccc2)C1 (centres unmarked) [Compound 111] | 7.08 µM | 1.21 | 2.2101% | 2.1 | 43 | – | – | – | – | – | – | –
O=[N+]([O-])c1ccc(Cl)cc1N/N=C/c1ccncc1 [Compound 112] | – | 3.132 | 0.1229% | 2.2 | 43 | 74.0416% | −5.25 | – | – | – | – | –
NC(=O)c1cccnc1Oc1ccc(Cl)cc1Cl [Compound 113] | 10 µM | 3.9295 | −5.8907% | 2.1 | 43 | – | – | – | – | – | – | –
Cc1ccc(NC(=O)C2CCCCC2C(=O)O)cc1C (centres unmarked) [Compound 114] | 11.2 µM | 4.5045 | −3.8223% | 2.1 | 43 | – | – | – | – | – | – | –
CCOc1ccc2oc(C(=O)OCC(=O)NC(=O)NC)c(C)c2c1 [Compound 115] | 7.08 µM | 1.8265 | −4.8829% | 2.2 | 43 | – | – | – | – | – | – | –
CN(C)S(=O)(=O)c1ccc(C(=O)Nc2nc3ccccc3[nH]2)cc1 [Compound 116] | 8.91 µM | 1.5579 | −9.8246% | 2.1 | 43 | – | – | – | – | – | – | –
NC1=Nc2cccc3cccc1c23 [Compound 117] | 7.94 µM | 1.6604 | −0.2202% | 2.1 | 43 | – | – | – | – | – | – | –
C/N=c1\scc(-c2ccc(OC)cc2)n1/N=C(\C)c1cccnc1 [Compound 118] | 5.01 µM | 1.6924 | −7.9176% | 2.2 | 43 | – | – | – | – | – | – | –
O=C(COC(=O)Cn1cnc2ccccc21)Nc1cccc([N+](=O)[O-])c1 [Compound 119] | 11.2 µM | 4.9549 | −16.0213% | 2.1 | 43 | – | – | – | – | – | – | –
Cc1ccc(CNc2ncnc(N)c2[N+](=O)[O-])cc1 [Compound 120] | 10 µM | 0.8 | 11.933% | 2.1 | 43 | – | – | – | – | – | – | –
CN(C)/C=N/c1nccc(-c2cccs2)n1 [Compound 121] | 8.91 µM | 1.8851 | 5.7133% | 2.1 | 43 | – | – | – | – | – | – | –
Cc1cc(N2CCOCC2)nc2ccc(N/C(S)=N/Cc3ccc4c(c3)OCO4)cc12 [Compound 122] | 10 µM | 1.2475 | 0.5248% | 2.1 | 43 | – | – | – | – | – | – | –
COCCN1C=C(C(=O)OC)C(c2ccccc2Cl)C(C(=O)OC)=C1 [Compound 123] | – | – | – | – | – | – | – | 8.91 µM | 43 | 2.1 | 1.3443 | 3.9836%
O=C(NCCCn1ccnc1)/C(=C/c1cccs1)NC(=O)c1ccco1 [Compound 124] | – | – | – | – | – | – | – | 8.91 µM | 43 | 2.1 | 1.2475 | −20.4393%
N=C(NOC(=O)COc1cc(Cl)c(Cl)cc1Cl)c1ccncc1 [Compound 125] | – | – | – | – | – | – | – | 11.2 µM | 43 | 2.1 | 1.1705 | −2.6906%
Cc1ccc(-c2csc(Nc3ccc(C(=O)O)cc3)[n+]2Cc2ccccc2)cc1.[Br-] [Compound 126] | – | – | – | – | – | – | – | 8.91 µM | 43 | 2.1 | 1 | 0.673%
Cc1cc(-c2ccccc2)n2nc(N)nc2n1 [Compound 127] | – | – | – | – | – | – | – | 12.6 µM | 43 | 2.1 | 4.5045 | −18.9102%
O=C(N/N=C/c1cn[nH]c1-c1ccc(F)cc1)c1ccncc1 [Compound 128] | – | – | – | – | – | – | – | 14.1 µM | 43 | 2.1 | 4.5045 | 14.6735%
CC(/C=C(\O)c1ccccc1)=N\c1ccc(Br)c(Cl)c1 [Compound 130] | – | – | – | – | – | – | – | 11.2 µM | 43 | 2.1 | 4.5045 | 7.8122%
